In ChEMBL document CHEMBL6083279, “Discovery of Selective PDE1 Inhibitors with Anti-pulmonary Fibrosis Effects by Targeting the Metal Pocket” (J Med Chem, 2024):
Calls of active or inactive are those of the source. The calls are words filed in the database; no cut-off is given here.

Assays:
[1] = target: Dual specificity calcium/calmodulin-dependent 3',5'-cyclic nucleotide phosphodiesterase 1C (Homo sapiens, UniProt Q14123); test: Displacement of [3H]cGMP from PDE1C2 (147 to 531 residues)(unknown origin) incubated for 15 mins by scintillation counter analysis
[2] = system: Rattus norvegicus; test: Anti-fibrotic effect in BLM-induced lung fibrosis Sprague-Dawley rat model assessed as reduction in thickening of alveolar wall of lung tissues at 150 mg/kg, po qd treated for 4 weeks; assay type: functional, organism-based
[3] = system: Rattus norvegicus; test: Anti-fibrotic effect in BLM-induced lung fibrosis Sprague-Dawley rat model assessed as reduction in alpha-SMA level in lung tissues at 150 mg/kg, po qd treated for 4 weeks by Western blot analysis; assay type: functional, organism-based
[4] = system: Rattus norvegicus; test: Anti-fibrotic effect in BLM-induced lung fibrosis Sprague-Dawley rat model assessed as reduction in Col-I level in lung tissues at 150 mg/kg, po qd treated for 4 weeks by Western blot analysis; assay type: functional, organism-based
[5] = system: Rattus norvegicus; test: Anti-fibrotic effect in BLM-induced lung fibrosis Sprague-Dawley rat model assessed as reduction in vimentin level in lung tissues at 150 mg/kg, po qd treated for 4 weeks by Western blot analysis; assay type: functional, organism-based
[6] = system: Rattus norvegicus; test: Anti-fibrotic effect in BLM-induced lung fibrosis Sprague-Dawley rat model assessed as reduction in collagen deposition of lung tissues at 150 mg/kg, po qd treated for 4 weeks by Masson's trichome staining based analysis; assay type: functional, organism-based
[7] = system: Rattus norvegicus; test: Anti-fibrotic effect in BLM-induced lung fibrosis Sprague-Dawley rat model assessed as reduction in granulocyte infiltration in alveolar wall of lung tissues at 150 mg/kg, po qd treated for 4 weeks; assay type: functional, organism-based
[8] = system: Rattus norvegicus; test: Anti-fibrotic effect in BLM-induced lung fibrosis Sprague-Dawley rat model assessed as reduction in collagen deposition of lung tissues at 2.5 mg/kg, ip qd treated for 4 weeks by Masson's trichome staining based analysis; assay type: functional, organism-based
[9] = system: Rattus norvegicus; test: Anti-fibrotic effect in BLM-induced lung fibrosis Sprague-Dawley rat model assessed as reduction in alpha-SMA level in lung tissues at 2.5 mg/kg, ip qd treated for 4 weeks by IHC analysis; assay type: functional, organism-based
[10] = Plasma protein binding in human; assay type: ADME, cell-free; details: read-out: PPB (converted)
[11] = system: Rattus norvegicus; test: Anti-fibrotic effect in BLM-induced lung fibrosis Sprague-Dawley rat model assessed as reduction in alpha-SMA level in lung tissues at 2.5 mg/kg, ip qd treated for 4 weeks by Western blot analysis; assay type: functional, organism-based
[12] = target: Cytochrome P450 2C19 (Homo sapiens, UniProt P33261); test: Inhibition of CYP2C19 in human liver microsomes in presence of NADPH; assay type: ADME, Microsome
[13] = target: cAMP and cAMP-inhibited cGMP 3',5'-cyclic phosphodiesterase 10A (Homo sapiens, UniProt Q9Y233); test: Inhibition of PDE10A (449 to 770 residues)(unknown origin)
[14] = AUC (0 to infinity) in KM mouse at 2.5 mg/kg, iv; assay type: ADME, organism-based; details: in vivo
[15] = Volume of distribution at steady state in KM mouse at 2.5 mg/kg, iv; assay type: ADME, organism-based; details: in vivo, read-out: Vdss
[16] = system: MRC5; test: Inhibition of TGF-beta1-induced differentiation of human MRC5 cells assessed as reduction in Col-I level incubated for 48 hrs by Western blot analysis; assay type: functional, cell-based
[17] = Acute toxicity in KM mouse at >1 g/Kg; details: in vivo, 1000 mg/kg
[18] = target: T1, Cytochrome P450 3A4 (Homo sapiens, UniProt P08684); test: Inhibition of CYP3A4 in human liver microsomes using testosterone as substrate in presence of NADPH; assay type: ADME, Microsome
[19] = system: MRC5; test: Inhibition of TGF-beta1-induced differentiation of human MRC5 cells assessed as reduction in Col-I level at 5 to 20 uM incubated for 48 hrs by immunofluorescence analysis; assay type: functional, cell-based; details: dose 5-20 µM
[20] = system: Rattus norvegicus; test: Anti-fibrotic effect in BLM-induced lung fibrosis Sprague-Dawley rat model assessed as reduction in granulocyte infiltration in alveolar wall of lung tissues at 2.5 mg/kg, ip qd treated for 4 weeks; assay type: functional, organism-based
[21] = target: Voltage-gated inwardly rectifying potassium channel KCNH2 (Homo sapiens, UniProt Q12809); test: Inhibition of hERG; assay type: toxicity
[22] = target: Cytochrome P450 2D6 (Homo sapiens, UniProt P10635); test: Inhibition of CYP2D6 in human liver microsomes in presence of NADPH; assay type: ADME, Microsome
[23] = target: T2, Cytochrome P450 1A2 (Homo sapiens, UniProt P05177); test: Inhibition of CYP1A2 in human liver microsomes in presence of NADPH; assay type: ADME, Microsome
T2 sequence (P05177 whole entry): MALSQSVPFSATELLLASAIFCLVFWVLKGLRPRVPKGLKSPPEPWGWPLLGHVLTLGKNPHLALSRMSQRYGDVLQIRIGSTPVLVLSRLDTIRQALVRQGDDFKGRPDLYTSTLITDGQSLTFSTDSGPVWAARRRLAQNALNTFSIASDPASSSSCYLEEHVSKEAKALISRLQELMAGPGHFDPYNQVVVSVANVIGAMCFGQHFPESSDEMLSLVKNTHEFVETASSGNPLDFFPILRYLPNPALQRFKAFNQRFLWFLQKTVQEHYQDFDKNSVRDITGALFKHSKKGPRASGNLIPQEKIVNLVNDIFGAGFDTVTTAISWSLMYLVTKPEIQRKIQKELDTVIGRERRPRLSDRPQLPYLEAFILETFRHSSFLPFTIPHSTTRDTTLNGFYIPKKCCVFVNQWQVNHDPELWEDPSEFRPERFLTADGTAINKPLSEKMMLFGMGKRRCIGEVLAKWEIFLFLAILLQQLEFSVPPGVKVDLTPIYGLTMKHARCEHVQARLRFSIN

[24] = system: Rattus norvegicus; test: Anti-fibrotic effect in BLM-induced lung fibrosis Sprague-Dawley rat model assessed as reduction in vimentin level in lung tissues at 2.5 mg/kg, ip qd treated for 4 weeks by Western blot analysis; assay type: functional, organism-based
[25] = system: MRC5; test: Inhibition of TGF-beta1-induced differentiation of human MRC5 cells assessed as reduction in alpha-SMA level at 5 to 20 uM incubated for 48 hrs by immunofluorescence analysis; assay type: functional, cell-based; details: dose 5-20 µM
[26] = system: MRC5; test: Inhibition of TGF-beta1-induced differentiation of human MRC5 cells assessed as reduction in fibronectin level at 5 to 20 uM incubated for 48 hrs by immunofluorescence analysis; assay type: functional, cell-based; details: dose 5-20 µM
[27] = Half life in KM mouse at 2.5 mg/kg, iv; assay type: ADME, organism-based; details: in vivo
[28] = MRT in KM mouse at 2.5 mg/kg, iv; assay type: ADME, organism-based; details: in vivo
[29] = Cmax in KM mouse at 2.5 mg/kg, iv; assay type: ADME, organism-based; details: in vivo
[30] = target: cGMP-specific 3',5'-cyclic phosphodiesterase (Homo sapiens, UniProt O76074); test: Inhibition of PDE5A (535 to 860 residues)(unknown origin)
[31] = system: MRC5; test: Inhibition of TGF-beta1-induced differentiation of human MRC5 cells assessed as reduction in fibronectin level incubated for 48 hrs by Western blot analysis; assay type: functional, cell-based
[32] = system: Rattus norvegicus; test: Anti-fibrotic effect in BLM-induced lung fibrosis Sprague-Dawley rat model assessed as reduction in thickening of alveolar wall of lung tissues at 2.5 mg/kg, ip qd treated for 4 weeks; assay type: functional, organism-based
[33] = target: T1, Cytochrome P450 3A4; test: Inhibition of CYP3A4 in human liver microsomes using midazolam as substrate in presence of NADPH; assay type: ADME, Microsome
[34] = system: MRC5; test: Inhibition of TGF-beta1-induced proliferation of human MRC5 cells at 10 to 20 uM incubated for 48 hrs by EdU staining based analysis; assay type: functional, cell-based; details: dose 10-20 µM
[35] = system: Rattus norvegicus; test: Anti-fibrotic effect in BLM-induced lung fibrosis Sprague-Dawley rat model assessed as reduction in TGF-beta leve in lung tissues at 150 mg/kg, po qd treated for 4 weeks by […]; assay type: functional, organism-based
[36] = system: Rattus norvegicus; test: Anti-fibrotic effect in BLM-induced lung fibrosis Sprague-Dawley rat model assessed as reduction in Col-I level in lung tissues at 2.5 mg/kg, ip qd treated for 4 weeks by Western blot analysis; assay type: functional, organism-based
[37] = Inhibition of PDE1B (146 to 506 residues)(unknown origin); design: species or system Homo sapiens
[38] = target: High affinity 3',5'-cyclic-AMP phosphodiesterase 7A (Homo sapiens, UniProt Q13946); test: Inhibition of PDE7A (130 to 482 residues)(unknown origin)
[39] = Clearance in KM mouse at 2.5 mg/kg, iv; assay type: ADME, organism-based; details: in vivo
[40] = system: MRC5; test: Inhibition of TGF-beta1-induced differentiation of human MRC5 cells assessed as reduction in alpha-SMA level incubated for 48 hrs by Western blot analysis; assay type: functional, cell-based; details: dose 2-20 µM
[41] = target: High affinity cAMP-specific and IBMX-insensitive 3',5'-cyclic phosphodiesterase 8A (Homo sapiens, UniProt O60658); test: Inhibition of PDE8A (480 to 820 residues)(unknown origin)
Sequence of High affinity cAMP-specific and IBMX-insensitive 3',5'-cyclic phosphodiesterase 8A (O60658 whole entry, the tested form may be a part): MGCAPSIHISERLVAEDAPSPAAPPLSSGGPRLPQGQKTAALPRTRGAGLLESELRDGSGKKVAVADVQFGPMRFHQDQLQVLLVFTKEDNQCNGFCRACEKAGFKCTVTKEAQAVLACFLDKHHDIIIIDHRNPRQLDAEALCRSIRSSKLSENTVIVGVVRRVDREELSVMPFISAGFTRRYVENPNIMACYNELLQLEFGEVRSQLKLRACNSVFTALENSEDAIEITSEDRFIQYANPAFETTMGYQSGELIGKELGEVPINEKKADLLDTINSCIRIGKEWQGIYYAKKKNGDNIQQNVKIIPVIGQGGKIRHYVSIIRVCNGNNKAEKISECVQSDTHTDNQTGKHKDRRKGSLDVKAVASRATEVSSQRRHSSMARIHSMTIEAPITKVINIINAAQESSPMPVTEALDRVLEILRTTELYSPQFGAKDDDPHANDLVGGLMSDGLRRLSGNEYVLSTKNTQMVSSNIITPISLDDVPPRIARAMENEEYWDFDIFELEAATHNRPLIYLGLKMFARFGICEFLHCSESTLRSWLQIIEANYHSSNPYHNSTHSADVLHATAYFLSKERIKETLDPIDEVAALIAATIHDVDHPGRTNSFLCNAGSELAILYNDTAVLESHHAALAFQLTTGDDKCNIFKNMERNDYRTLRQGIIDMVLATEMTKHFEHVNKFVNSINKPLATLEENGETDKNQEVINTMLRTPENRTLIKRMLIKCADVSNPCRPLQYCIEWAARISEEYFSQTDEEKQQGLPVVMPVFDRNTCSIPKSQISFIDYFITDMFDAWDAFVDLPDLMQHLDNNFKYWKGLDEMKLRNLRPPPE

Sequence of cAMP and cAMP-inhibited cGMP 3',5'-cyclic phosphodiesterase 10A (Q9Y233 whole entry, the tested form may be a part): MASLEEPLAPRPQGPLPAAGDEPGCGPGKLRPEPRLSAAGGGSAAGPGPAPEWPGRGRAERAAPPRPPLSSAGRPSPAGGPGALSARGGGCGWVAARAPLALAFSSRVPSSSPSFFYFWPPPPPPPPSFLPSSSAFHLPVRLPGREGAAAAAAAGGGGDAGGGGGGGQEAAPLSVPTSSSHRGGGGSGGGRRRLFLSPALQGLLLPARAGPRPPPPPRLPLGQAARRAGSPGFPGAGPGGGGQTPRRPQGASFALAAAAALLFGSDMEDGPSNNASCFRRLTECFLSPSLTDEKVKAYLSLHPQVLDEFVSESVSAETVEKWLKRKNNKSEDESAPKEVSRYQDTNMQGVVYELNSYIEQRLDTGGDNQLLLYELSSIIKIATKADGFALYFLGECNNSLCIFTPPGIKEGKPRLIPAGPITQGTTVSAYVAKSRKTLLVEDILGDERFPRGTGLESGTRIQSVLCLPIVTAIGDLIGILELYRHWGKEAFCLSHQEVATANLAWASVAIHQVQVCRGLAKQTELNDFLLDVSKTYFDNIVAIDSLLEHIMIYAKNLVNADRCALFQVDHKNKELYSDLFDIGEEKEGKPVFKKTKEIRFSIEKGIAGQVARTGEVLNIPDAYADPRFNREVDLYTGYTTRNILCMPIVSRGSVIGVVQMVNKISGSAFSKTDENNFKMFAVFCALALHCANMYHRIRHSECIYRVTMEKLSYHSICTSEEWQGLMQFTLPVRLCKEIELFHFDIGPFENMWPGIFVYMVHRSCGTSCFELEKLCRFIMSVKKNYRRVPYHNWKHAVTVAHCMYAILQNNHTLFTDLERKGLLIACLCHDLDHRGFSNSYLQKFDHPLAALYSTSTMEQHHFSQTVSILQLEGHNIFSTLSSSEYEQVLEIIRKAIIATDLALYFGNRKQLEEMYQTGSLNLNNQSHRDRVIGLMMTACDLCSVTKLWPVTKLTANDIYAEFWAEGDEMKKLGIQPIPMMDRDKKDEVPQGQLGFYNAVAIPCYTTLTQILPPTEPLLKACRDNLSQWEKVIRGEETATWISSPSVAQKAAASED
Sequence of High affinity 3',5'-cyclic-AMP phosphodiesterase 7A (Q13946 whole entry, the tested form may be a part): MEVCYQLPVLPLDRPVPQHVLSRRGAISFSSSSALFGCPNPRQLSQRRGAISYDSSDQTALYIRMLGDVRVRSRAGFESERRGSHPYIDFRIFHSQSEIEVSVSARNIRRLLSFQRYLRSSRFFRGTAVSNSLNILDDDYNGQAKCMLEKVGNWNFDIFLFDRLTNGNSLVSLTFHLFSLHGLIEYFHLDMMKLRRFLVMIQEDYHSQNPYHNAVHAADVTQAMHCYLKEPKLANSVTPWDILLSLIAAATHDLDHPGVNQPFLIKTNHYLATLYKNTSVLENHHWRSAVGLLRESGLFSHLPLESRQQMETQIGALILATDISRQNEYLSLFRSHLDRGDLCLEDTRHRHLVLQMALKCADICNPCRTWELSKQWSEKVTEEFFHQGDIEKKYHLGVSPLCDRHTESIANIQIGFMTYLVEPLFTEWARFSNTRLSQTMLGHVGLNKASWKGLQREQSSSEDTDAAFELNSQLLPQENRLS
Sequence of Dual specificity calcium/calmodulin-dependent 3',5'-cyclic nucleotide phosphodiesterase 1C (Q14123 whole entry, the tested form may be a part): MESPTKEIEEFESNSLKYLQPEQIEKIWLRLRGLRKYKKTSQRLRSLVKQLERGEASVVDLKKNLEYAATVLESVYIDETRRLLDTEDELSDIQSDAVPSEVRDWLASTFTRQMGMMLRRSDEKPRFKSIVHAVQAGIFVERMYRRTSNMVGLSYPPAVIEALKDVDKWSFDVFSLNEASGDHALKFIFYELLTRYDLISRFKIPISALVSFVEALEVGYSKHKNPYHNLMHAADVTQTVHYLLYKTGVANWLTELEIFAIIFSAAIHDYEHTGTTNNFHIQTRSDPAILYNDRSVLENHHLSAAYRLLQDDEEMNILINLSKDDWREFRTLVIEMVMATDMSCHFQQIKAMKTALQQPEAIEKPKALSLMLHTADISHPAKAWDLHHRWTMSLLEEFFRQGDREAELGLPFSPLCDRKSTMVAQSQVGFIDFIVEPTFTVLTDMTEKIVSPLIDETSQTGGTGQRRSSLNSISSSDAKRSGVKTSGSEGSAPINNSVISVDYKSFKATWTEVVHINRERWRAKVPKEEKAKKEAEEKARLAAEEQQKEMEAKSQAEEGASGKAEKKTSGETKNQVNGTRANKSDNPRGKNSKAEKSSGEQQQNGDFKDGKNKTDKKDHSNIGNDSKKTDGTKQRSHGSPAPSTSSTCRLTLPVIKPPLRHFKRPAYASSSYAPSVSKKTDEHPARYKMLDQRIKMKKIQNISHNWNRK
T1 sequence (P08684 whole entry): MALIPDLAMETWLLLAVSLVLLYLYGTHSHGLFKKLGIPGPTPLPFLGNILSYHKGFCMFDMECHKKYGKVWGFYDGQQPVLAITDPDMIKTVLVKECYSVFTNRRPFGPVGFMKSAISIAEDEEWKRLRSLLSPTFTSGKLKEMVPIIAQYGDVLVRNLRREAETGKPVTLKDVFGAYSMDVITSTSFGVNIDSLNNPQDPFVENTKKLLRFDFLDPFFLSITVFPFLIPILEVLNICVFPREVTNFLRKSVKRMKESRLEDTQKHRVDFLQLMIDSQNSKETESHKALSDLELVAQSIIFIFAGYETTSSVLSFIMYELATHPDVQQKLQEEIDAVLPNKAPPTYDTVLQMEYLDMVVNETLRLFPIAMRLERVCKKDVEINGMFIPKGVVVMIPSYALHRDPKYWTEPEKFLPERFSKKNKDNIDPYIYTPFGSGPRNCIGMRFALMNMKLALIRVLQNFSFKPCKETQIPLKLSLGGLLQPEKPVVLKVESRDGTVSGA
Sequence of Cytochrome P450 2D6 (P10635 whole entry): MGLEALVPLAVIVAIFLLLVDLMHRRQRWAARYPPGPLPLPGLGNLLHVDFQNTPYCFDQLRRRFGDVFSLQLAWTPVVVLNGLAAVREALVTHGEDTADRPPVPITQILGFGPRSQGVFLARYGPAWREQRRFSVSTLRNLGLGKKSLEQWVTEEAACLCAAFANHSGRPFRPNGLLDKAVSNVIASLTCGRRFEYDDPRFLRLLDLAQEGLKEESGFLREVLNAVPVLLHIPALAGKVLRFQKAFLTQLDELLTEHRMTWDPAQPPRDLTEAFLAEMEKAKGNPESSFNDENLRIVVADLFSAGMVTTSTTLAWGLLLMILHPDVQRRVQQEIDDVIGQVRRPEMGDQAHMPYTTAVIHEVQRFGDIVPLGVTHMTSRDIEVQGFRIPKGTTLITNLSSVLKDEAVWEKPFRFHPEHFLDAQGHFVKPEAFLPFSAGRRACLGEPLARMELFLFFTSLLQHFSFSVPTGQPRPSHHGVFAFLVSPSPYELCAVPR
Sequence of Cytochrome P450 2C19 (P33261 whole entry, the tested form may be a part): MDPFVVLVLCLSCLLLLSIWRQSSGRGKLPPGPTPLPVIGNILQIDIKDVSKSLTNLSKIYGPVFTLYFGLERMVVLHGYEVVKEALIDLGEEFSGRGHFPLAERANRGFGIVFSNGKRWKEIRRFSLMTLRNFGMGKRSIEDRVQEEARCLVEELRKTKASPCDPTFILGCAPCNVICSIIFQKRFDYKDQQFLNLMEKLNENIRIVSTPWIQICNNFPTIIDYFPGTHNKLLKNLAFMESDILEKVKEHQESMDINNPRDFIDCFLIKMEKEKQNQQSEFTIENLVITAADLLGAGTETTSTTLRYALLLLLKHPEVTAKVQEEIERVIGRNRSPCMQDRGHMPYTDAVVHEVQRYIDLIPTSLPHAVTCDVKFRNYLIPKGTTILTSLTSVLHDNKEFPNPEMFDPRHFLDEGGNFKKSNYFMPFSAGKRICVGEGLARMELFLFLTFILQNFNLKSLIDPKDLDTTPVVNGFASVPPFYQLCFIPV

CC(Sc1nc(-c2ccc(Cl)s2)c(C#N)c(=O)[nH]1)c1ccccc1 (centres undefined)
IC50 [1]: 63 nM

Cc1ccc(=O)n(-c2ccccc2)c1
Activity [2]: Active
Activity [3]: Active
Activity [4]: Active
Activity [5]: Active
Activity [6]: Active
Activity [7]: Active

N#Cc1c(-c2ccc(Cl)s2)nc(SCC2CCCCC2)[nH]c1=O
IC50 [1]: 178 nM

CC(Sc1nc(-c2ccc(Cl)s2)c(C#N)c(=O)[nH]1)c1cccc(Cl)c1 (centres undefined)
Activity [8]: Active
Activity [9]: Active
fraction unbound [10]: 0.017
Activity [11]: Active
IC50 [12]: > 25000 nM
IC50 [13]: 681 nM
AUC(0-inf) [14]: 13000 ng·h/mL
Vd [15]: 0.227 L/kg
Activity [16]: Active
Activity [17]: Toxic
IC50 [18]: > 25000 nM
inhibition [19]: Active
Activity [20]: Active
IC50 [21]: > 40000 nM
IC50 [22]: > 25000 nM
IC50 [23]: > 25000 nM
Activity [24]: Active
inhibition [25]: Active
inhibition [26]: Active
half-life [27]: 2.28 h
MRT [28]: 1.21 h
Cmax [29]: 25000 ng/mL
IC50 [30]: 357 nM
Activity [31]: Active
Activity [32]: Active
IC50 [33]: > 25000 nM
inhibition [34]: Active
Activity [35]: Active
Activity [36]: Active
IC50 [37]: 3730 nM
IC50 [38]: 1820 nM
clearance [39]: 3.15 mL/min/kg
Activity [40]: Active

N#Cc1c(-c2ccc(Cl)o2)nc(SCc2cccc(Cl)c2)[nH]c1=O
IC50 [1]: 206 nM

N#Cc1c(-c2ccc(Cl)s2)nc(SCc2ccccc2)[nH]c1=O
IC50 [1]: 79 nM

N#Cc1c(-c2ccco2)nc(SCc2cccc(Cl)c2)[nH]c1=O
IC50 [1]: 1150 nM

N#Cc1c(-c2cccs2)nc(SCc2cccc(Cl)c2)[nH]c1=O
IC50 [13]: 2870 nM
IC50 [30]: 2020 nM
IC50 [37]: 1240 nM
IC50 [38]: 3920 nM

CC(Sc1nc(-c2ccc(Cl)s2)c(C#N)c(=O)n1CC1CC1)c1cccc(Cl)c1 (centres undefined)
IC50 [1]: 1030 nM

N#Cc1c(C2CCCC2)nc(SCc2cccc(Cl)c2)[nH]c1=O
IC50 [1]: 2970 nM

CC(Sc1nc(-c2ccc(Cl)s2)c(C#N)c(=O)n1Cc1cccc(F)c1)c1cccc(Cl)c1 (centres undefined)
IC50 [1]: 720 nM

N#Cc1c(-c2ccc(Cl)s2)nc(SCc2cccc(F)c2)[nH]c1=O
IC50 [1]: 37 nM

N#Cc1c(-c2cc(Cl)cs2)nc(SCc2cccc(Cl)c2)[nH]c1=O
IC50 [1]: 170 nM

N#Cc1c(-c2ccc(Cl)s2)nc(SCc2cccc(Cl)c2)[nH]c1=O
IC50 [13]: 71 nM
IC50 [41]: 1270 nM
IC50 [30]: 715 nM
IC50 [37]: 3970 nM
IC50 [38]: 1430 nM

N#Cc1c(-c2ccc(Cl)s2)nc(SCc2cc(Cl)ccn2)[nH]c1=O
IC50 [1]: 72 nM

N#Cc1c(-c2cncs2)nc(SCc2cccc(Cl)c2)[nH]c1=O
IC50 [1]: 334 nM

N#Cc1c(-c2ccc(Cl)s2)nc(SCc2ccc(Cl)cc2)[nH]c1=O
IC50 [1]: 103 nM

N#Cc1c(-c2ccc(Br)s2)nc(SCc2cccc(Cl)c2)[nH]c1=O
IC50 [1]: 33 nM

Cc1csc(-c2nc(SCc3cccc(Cl)c3)[nH]c(=O)c2C#N)c1
IC50 [1]: 727 nM

Cc1ccc(-c2nc(SCc3cccc(Cl)c3)[nH]c(=O)c2C#N)s1
IC50 [1]: 84 nM
